{
  "source": "patent US20040052922A1",
  "about": "“Nutritional and therapeutical preparations having antioxidant activity” (priority 2000, published 2004)",
  "format_in_all_cases": "in vivo, rat",
  "key": {"[1]": {"tested_on": "membrane of erythrocyte ghosts", "test": "Membrane fluidity of erythrocyte ghosts (TMA-DPH fluorescent probe) in rats on hypercaloric, hyperlipidemizing diet", "conditions": "expressed as % compared with controls values at time 0; after 20 days of dietary treatment", "description": "(§1) Rats received hypercaloric, hypertriglyceridemizing and hypercholesterolemizing diet. After twenty days of treatment, the effect of the compositions on the following parameters was evaluated: 80 Male rats, each weighing 150-200 g, were used. The animals were subdivided into 8 groups of 10 animals each: […] 20% casein; 3.5% mixture of oligoelements and mineral salts; 0.1% mixture of vitamins; 0.2% choline ditartrate; 2% cellulose; cholesterol 0.5%; 0.25% sodium cholate; 58.44% saccharose; 10.0% lard and 4.9% olive oil. […] 3rd group A: animals were treated with a polycosanols mixture (octacosanol=50%) of rice wax (PLC), animals received for 20 days the same diet as the controls, except that 0.5 g of rice wax polycosanols replaced in part a similar amount of olive oil (olive oil used: 4.4%). […] 5th group: treated with 1-piperoylpiperidine (P); animals received for 20 days the same diet as the controls, except that 0.025 g of 1-piperoylpiperidine replaced a similar amount of olive oil (olive oil used: 4.875%). […] Membrane fluidity of erythrocyte ghosts and plasma platelets was measured using TMA-DPH as fluorescent probe, according to the method by […]. et al., 1999, Thromb. Hoemost., 82 pp. 149."}, "[2]": {"tested_on": "membrane of plasma platelets", "test": "Membrane fluidity of plasma platelets (TMA-DPH fluorescent probe) in rats on hypercaloric, hyperlipidemizing diet", "conditions": "expressed as % compared with controls values at time 0; after 20 days of dietary treatment", "description": "as §1"}, "lipoperoxides": {"tested_on": "lipoperoxides", "test": "Lipoperoxides levels (malonyldialdehyde) in plasma, liver, brain and heart of rats on hypercaloric diet", "description": "Rats received hypercaloric, hypertriglyceridemizing and hypercholesterolemizing diet. After twenty days of treatment, the effect of the compositions on the following parameters was evaluated: 1) lipoperoxides levels in plasma, liver, brain and heart; 80 Male rats, each weighing 150-200 g, were used. […] 20% casein; 3.5% mixture of oligoelements and mineral salts; 0.1% mixture of vitamins; 0.2% choline ditartrate; 2% cellulose; cholesterol 0.5%; 0.25% sodium cholate; 58.44% saccharose; 10.0% lard and 4.9% olive oil. […] Malonyldialdehyde was evaluated according to the procedure by K. Yagi et al., 1982, in “Lipid Peroxides in Biology and Medicine”, Academic Press, New York, pp. 324-340."}, "[3]": {"test": "Total cholesterol, HDL cholesterol and triglycerids plasma levels in rats on hypercaloric diet", "description": "(§2) Rats received hypercaloric, hypertriglyceridemizing and hypercholesterolemizing diet. After twenty days of treatment, the effect of the compositions on the following parameters was evaluated: 4) total cholesterol and HDL cholesterol plasma levels; 5) total triglycerids plasma levels. 80 Male rats, each weighing 150-200 g, were used. The animals were subdivided into 8 groups of 10 animals each: […] 20% casein; 3.5% mixture of oligoelements and mineral salts; 0.1% mixture of vitamins; 0.2% choline ditartrate; 2% cellulose; cholesterol 0.5%; 0.25% sodium cholate; 58.44% saccharose; 10.0% lard and 4.9% olive oil. […] 3rd group A: animals were treated with a polycosanols mixture (octacosanol=50%) of rice wax (PLC), animals received for 20 days the same diet as the controls, except that 0.5 g of rice wax polycosanols replaced in part a similar amount of olive oil (olive oil used: 4.4%). […] 5th group: treated with 1-piperoylpiperidine (P); animals received for 20 days the same diet as the controls, except that 0.025 g of 1-piperoylpiperidine replaced a similar amount of olive oil (olive oil used: 4.875%)."}, "[4]": {"test": "Body weight of rats on hypercaloric diet", "description": "as §2, with “2) body weight;” for “4) total cholesterol and HDL cholesterol plasma levels; 5) total triglycerids plasma levels.”"}, "[5]": {"conditions": "after 20 days of diet treatment"}, "[6]": {"conditions": "in brackets, control after 20 day diet = 100%"}},
  "data": [
    {"smiles": "O=C(/C=C/C=C/c1ccc2c(c1)OCO2)N1CCCCC1", "note": "[P, 1-piperoylpiperidine]", "values": [
      {"measurement": "membrane fluidity (erythrocyte ghosts)", "setting": "[1]", "value": 73, "unit": "%"},
      {"measurement": "membrane fluidity (plasma platelets)", "setting": "[2]", "value": 70, "unit": "%"},
      {"measurement": "MDA BRAIN", "setting": "lipoperoxides; brain, after 20 day dietary treatment", "value": "107 ± 5 n mols of malonyldialdehyde (MDA) per gram of tissue"},
      {"measurement": "Percent change vs. controls (MDA BRAIN)", "setting": "lipoperoxides; brain, vs control rats after 20 days of diet", "value": "−0.9", "unit": "%"},
      {"measurement": "MDA HEART", "setting": "lipoperoxides; heart, after 20 day dietary treatment", "value": "44 ± 7 n mols of malonyldialdehyde (MDA) per gram of tissue"},
      {"measurement": "Percent change compared with controls (MDA HEART)", "setting": "lipoperoxides; heart, vs control rats after 20 days of diet", "value": "−2.2", "unit": "%"},
      {"measurement": "MDA LIVER", "setting": "lipoperoxides; liver, after 20 day dietary treatment", "value": "43.5 ± 7.8 n mols of malonyldialdehyde (MDA) per gram of tissue"},
      {"measurement": "Percent change vs. controls (MDA LIVER)", "setting": "lipoperoxides; liver, vs control rats after 20 days of diet", "value": "−1.5", "unit": "%"},
      {"measurement": "MDA PLASMA", "setting": "lipoperoxides; plasma, after 20 day dietary treatment", "value": "5.0 ± 0.3 n mols of malonyldialdehyde (M"},
      {"measurement": "Percent change vs. controls (MDA PLASMA)", "setting": "lipoperoxides; plasma, vs control rats after 20 days of diet", "value": "−1.9", "unit": "%"},
      {"measurement": "HDL cholesterol", "setting": "[3]; [5]", "value": "29.3 ± 1.5", "unit": "mg/dL"},
      {"measurement": "Total cholesterol", "setting": "[3]; [5]", "value": "125.2 ± 12.5", "unit": "mg/dL"},
      {"measurement": "total triglycerids", "setting": "[3]; [5]", "value": "81.9 ± 8.7", "unit": "mg/dL"},
      {"measurement": "Total cholesterol, percent change vs control rats after 20 day diet", "setting": "[3]; [6]", "value": "−0.7", "unit": "%"},
      {"measurement": "total triglycerids, percent change vs control rats after 20 day diet", "setting": "[3]; [6]", "value": "−0.7", "unit": "%"},
      {"measurement": "body weight", "setting": "[4]; [5]", "value": "223 ± 16", "unit": "g"},
      {"measurement": "body weight, percent change vs control rats after 20 day diet", "setting": "[4]; [6]", "value": "−0.4", "unit": "%"}
    ]}
  ]
}
